Tests used:
[1] = in vivo; cited from earlier work
[2] = male, cynomolgus monkey, in vivo
From the text: The following method can be used to determine the oral bioavailability of GABAB agonist prodrugs provided by the present disclosure in Cymologous monkeys, and therefore the appropriateness of the GABAB agonist prodrugs for use in oral sustained release dosage forms for treating neuropathic and musculoskeletal pain.
All plasma samples were subsequently analyzed for (R)-baclofen and intact prodrug using the LC/MS/MS assay described above.

[3] = rat, in vivo, 10 mg
Method: Rats were obtained commercially and were pre-cannulated in the both the ascending colon and the jugular vein. Animals were conscious at the time of the experiment. All animals were fasted overnight and until 4 hours post-dosing. […] Blood samples were analyzed as described according to the following procedure. […]
An API 2000 LC/MS/MS spectrometer equipped with Shimadzu 10ADVp binary pumps and a CTC HTS-PAL autosampler was used in the analysis. […] The peaks were integrated using Analyst 1.2 quantitation software.

oral bioavailability as (R)-baclofen [2]	maximum plasma concentration of (R)-baclofen (Cmax) relative to colonic administration of (R)-baclofen itself [3] [fold]	Structure (SMILES)	elimination half-life [1] [h]
–	–	NCC(CC(=O)O)c1ccc(Cl)cc1 (racemic) [baclofen, (±)-4-Amino-3-(4-chlorophenyl)butanoic acid]	3 to 4
greater than 80%	> 2	CC(C)C(=O)O[C@@H](OC(=O)NC[C@H](CC(=O)O)c1ccc(Cl)cc1)C(C)C [compound (4), (3R)-4-{[(1S)-2-methyl-1-(2-methylpropanoyloxy)propoxy]carbonylamino}-3-(4-chlorophenyl)butanoic acid]	–

— US20090118365A1, “Use of Prodrugs of GABA B Agonists for Treating Neuropathic and Musculoskeletal Pain” (XenoPort, Inc, priority 2007, published 2009)
